The assay concerns BDF1 mice, Adenocarcinoma 755 s.c., tumor weight T/C. In words: NCI In Vivo Anticancer Drug Screen. Data for tumor model Adenocarcinoma 755 (subcutaneous) in B6D2F1 (BDF1) mice. To be noted: endpoint: mean tumor weight, higher = larger tumour. In a few lines: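 Compound activity was tested in mice carrying transplanted tumors. Survival or tumor size was measured, and each value is the treated-group measurement divided by that of the vehicle-treated control group (T/C).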

Setting [1] is: dose: 31.0 mg/kg/injection, schedule: Q01DX011 (ip), vehicle: methylcellulose (MC).
Where [2] appears, read: dose: 62.0 mg/kg/injection, schedule: Q01DX011 (ip), vehicle: methylcellulose (MC).
Setting [3] is: dose: 125.0 mg/kg/injection, schedule: Q01DX011 (ip), vehicle: methylcellulose (MC).
[4] abbreviates: dose: 25.0 mg/kg/injection, schedule: Q01DX011 (ip), vehicle: methylcellulose (MC).
The mark [5] stands for this setting: dose: 50.0 mg/kg/injection, schedule: Q01DX011 (ip), vehicle: saline.
Setting [6] is: dose: 100.0 mg/kg/injection, schedule: Q01DX011 (ip), vehicle: saline.
[7] abbreviates: dose: 200.0 mg/kg/injection, schedule: Q01DX011 (ip), vehicle: saline.
The mark [8] stands for this setting: dose: 125.0 mg/kg/injection, schedule: Q01DX011 (ip), vehicle: carboxymethylcellulose (CMC).
Setting [9] is: dose: 250.0 mg/kg/injection, schedule: Q01DX011 (ip), vehicle: carboxymethylcellulose (CMC).
[10] abbreviates: dose: 15.0 mg/kg/injection, schedule: Q01DX011 (ip), vehicle: methylcellulose (MC).
[11] abbreviates: dose: 250.0 mg/kg/injection, schedule: Q01DX011 (ip), vehicle: methylcellulose (MC).

Structures are written as SMILES. Values joined by “and” are separate entries in the source; they are usually repeats but may differ in a detail not shown here. Equal values may be shown once.

The term T/C denotes the ratio of treated to control. Regarding `ClCCn1cnc2c(SCc3ccccc3)ncnc21`, the T/C is 115 % of control (dose: 0.5 mg/kg/injection, schedule: Q01DX011 (ip), vehicle: other); 98 % of control (dose: 0.5 mg/kg/injection, schedule: Q01DX011 (oral), vehicle: other); 72 % of control (dose: 1.0 mg/kg/injection, schedule: Q01DX011 (ip), vehicle: other); 79 % of control (dose: 1.0 mg/kg/injection, schedule: Q01DX011 (oral), vehicle: other); 67 % of control (dose: 2.0 mg/kg/injection, schedule: Q01DX011 (ip), vehicle: other); 72 % of control (dose: 2.0 mg/kg/injection, schedule: Q01DX011 (oral), vehicle: other). The T/C is 36 % of control (dose: 4.0 mg/kg/injection, schedule: Q01DX011 (ip), vehicle: other); 40 % of control (dose: 4.0 mg/kg/injection, schedule: Q01DX011 (oral), vehicle: other); 3 % of control (dose: 8.0 mg/kg/injection, schedule: Q01DX011 (ip), vehicle: other); 3 % of control (dose: 15.0 mg/kg/injection, schedule: Q01DX011 (ip), vehicle: other); 7 % of control (dose: 15.0 mg/kg/injection, schedule: Q01DX011 (oral), vehicle: other); 1 % of control (dose: 25.0 mg/kg/injection, schedule: Q01DX011 (ip), vehicle: carboxymethylcellulose (CMC)). Moreover, the T/C (dose: 50.0 mg/kg/injection, schedule: Q01DX011 (ip), vehicle: carboxymethylcellulose (CMC)) was 3 % of control.

As to `CC1CCOS(=O)O1` (stereo not given), the T/C by setting is: (dose: 20.0 mg/kg/injection, schedule: Q01DX011 (ip), vehicle: carboxymethylcellulose (CMC)) 76 % of control; (dose: 40.0 mg/kg/injection, schedule: Q01DX011 (ip), vehicle: carboxymethylcellulose (CMC)) 18 % of control.

Turning to `CCCCOP(=O)(OCCCC)OCC1OC(n2cnc3c(=S)nc[nH]c32)C(O)C1O` (stereo not given), the T/C runs as follows: under setting [1], 100 % of control; under setting [2], 65 % of control; under setting [3], 46 % of control.

Turning to `S=c1nc[nH]c2c1ncn2C1CCCC1`, the T/C runs as follows: (dose: 3.0 mg/kg/injection, schedule: Q01DX011 (ip), vehicle: methylcellulose (MC)) 69 % of control; (dose: 6.0 mg/kg/injection, schedule: Q01DX011 (ip), vehicle: methylcellulose (MC)) 50 % of control; (dose: 12.0 mg/kg/injection, schedule: Q01DX011 (ip), vehicle: methylcellulose (MC)) 22 % of control; (dose: 15.0 mg/kg/injection, schedule: Q01DX011 (ip), vehicle: carboxymethylcellulose (CMC)) 12 % of control and 17 % of control; (dose: 15.0 mg/kg/injection, schedule: Q01DX011 (oral), vehicle: carboxymethylcellulose (CMC)) 13 % of control; under setting [4], 4 % of control and 5 % of control. For the same compound, the T/C by setting is: (dose: 30.0 mg/kg/injection, schedule: Q01DX011 (ip), vehicle: carboxymethylcellulose (CMC)) 6 % of control and 10 % of control; (dose: 30.0 mg/kg/injection, schedule: Q01DX011 (oral), vehicle: carboxymethylcellulose (CMC)) 7 % of control; (dose: 60.0 mg/kg/injection, schedule: Q01DX011 (ip), vehicle: carboxymethylcellulose (CMC)) 2 % of control and 3 % of control; (dose: 60.0 mg/kg/injection, schedule: Q01DX011 (oral), vehicle: carboxymethylcellulose (CMC)) 4 % of control; (dose: 120.0 mg/kg/injection, schedule: Q01DX011 (oral), vehicle: carboxymethylcellulose (CMC)) 3 % of control; (dose: 162.0 mg/kg/injection, schedule: Q01DX001 (ip), vehicle: carboxymethylcellulose (CMC)) 94 % of control. Further, the T/C was 7 % of control (dose: 325.0 mg/kg/injection, schedule: Q01DX001 (ip), vehicle: carboxymethylcellulose (CMC)) and 1 % of control (dose: 1300.0 mg/kg/injection, schedule: Q01DX001 (ip), vehicle: carboxymethylcellulose (CMC)).

In the case of `C#C[C@]1(O)CC[C@H]2[C@@H]3CCc4cc(O)ccc4[C@H]3CC[C@@]21C`, the T/C (dose: 85.0 mg/kg/injection, schedule: Q01DX011 (sc), vehicle: steriod suspending solution) was 51 % of control and 53 % of control; the T/C (dose: 170.0 mg/kg/injection, schedule: Q01DX011 (sc), vehicle: steriod suspending solution) is 38 % of control and 43 % of control; the T/C (dose: 340.0 mg/kg/injection, schedule: Q01DX011 (sc), vehicle: steriod suspending solution) was 37 % of control and 43 % of control; the T/C (dose: 680.0 mg/kg/injection, schedule: Q01DX011 (sc), vehicle: steriod suspending solution) was 23 % of control.

Take `Nc1ncnc2c1ncn2C1CCCC(CO)O1` (stereo not given): the T/C is 196 % of control under setting [5], 115 % of control under setting [6] and 93 % of control under setting [7].

For `CCCCn1nnc2c(Nc3ccc(Cl)cc3)nc(N)nc21`, the T/C is, setting by setting: (dose: 62.5 mg/kg/injection, schedule: Q01DX011 (ip), vehicle: carboxymethylcellulose (CMC)) 96 % of control; under setting [8], 89 % of control; under setting [9], 68 % of control.

On to `CC1CC(C)C(=O)C(C(=O)CC2CC(=O)NC(=O)C2)C1` (stereo not given), for which, under setting [8], the T/C was 67 % of control.

Consider `c1cncc(CSc2ncnc3nc[nH]c23)c1`, for which the T/C (dose: 0.78 mg/kg/injection, schedule: Q01DX011 (ip), vehicle: methylcellulose (MC)) was 79 % of control; the T/C (dose: 1.55 mg/kg/injection, schedule: Q01DX011 (ip), vehicle: methylcellulose (MC)) is 40 % of control; the T/C (dose: 3.1 mg/kg/injection, schedule: Q01DX011 (ip), vehicle: methylcellulose (MC)) was 61 % of control; the T/C (dose: 6.25 mg/kg/injection, schedule: Q01DX011 (ip), vehicle: methylcellulose (MC)) is 8 % of control and 20 % of control; the T/C (dose: 12.5 mg/kg/injection, schedule: Q01DX011 (ip), vehicle: methylcellulose (MC)) was 4 % of control; the T/C under setting [4] is 2 % of control. In addition, the T/C (dose: 50.0 mg/kg/injection, schedule: Q01DX011 (ip), vehicle: methylcellulose (MC)) was 2 % of control.

Turning to `NC(=O)NOC(=O)c1ccccc1`, the T/C runs as follows: (dose: 50.0 mg/kg/injection, schedule: Q01DX011 (ip), vehicle: other) 57 % of control; under setting [5], 86 % of control; (dose: 100.0 mg/kg/injection, schedule: Q01DX011 (ip), vehicle: other) 28 % of control; under setting [6], 75 % of control; (dose: 200.0 mg/kg/injection, schedule: Q01DX011 (ip), vehicle: other) 21 % of control; under setting [7], 94 % of control. Further, under “dose: 400.0 mg/kg/injection, schedule: Q01DX011 (ip), vehicle: saline”, the T/C is 92 % of control.

As for `CSc1ncc(Br)c(Nc2ccccc2C)n1`, the T/C is 94 % of control under setting [10]; 87 % of control under setting [1]; 110 % of control under setting [2]; 117 % of control under setting [3]; 107 % of control under setting [11].

Turning to `NC(=O)CSc1nc(N)nc2nc[nH]c12`, the T/C reads like this: (dose: 63.0 mg/kg/injection, schedule: Q01DX011 (ip), vehicle: carboxymethylcellulose (CMC)) 113 % of control; under setting [8], 67 % of control; under setting [9], 48 % of control; (dose: 500.0 mg/kg/injection, schedule: Q01DX011 (ip), vehicle: carboxymethylcellulose (CMC)) 33 % of control.

On to `C/C(=N\NC(=O)c1ccncc1)c1ccc(Br)cc1`, for which the T/C (dose: 30.0 mg/kg/injection, schedule: Q01DX011 (ip), vehicle: methylcellulose (MC)) was 44 % of control and 49 % of control; the T/C (dose: 120.0 mg/kg/injection, schedule: Q01DX011 (ip), vehicle: methylcellulose (MC)) was 48 % of control and 50 % of control; the T/C (dose: 240.0 mg/kg/injection, schedule: Q01DX011 (ip), vehicle: methylcellulose (MC)) is 32 % of control and 52 % of control; the T/C (dose: 500.0 mg/kg/injection, schedule: Q01DX011 (ip), vehicle: methylcellulose (MC)) was 54 % of control.

For the compound `Nc1nc(Cl)cc(-c2ccccc2)n1`, the T/C runs as follows: under setting [10], 86 % of control; under setting [1], 122 % of control; under setting [2], 94 % of control; under setting [3], 65 % of control; under setting [11], 107 % of control.

(Values after PubChem BioAssay AID180 (DTP/NCI, 2004).)
